Experimental data: US20090291973A1, “Novel Quinazoline Derivatives and Their Medical Use” (NeuroSearch A/S, priority 2005, published 2009)

Key:
[1] = molecular target: T1, human Kv72+3 channels (Homo sapiens, UniProt O43525+O43526); experiment: patch-clamp, HEK293 cell lines stably expressing the human Kv72+3 channels; format: cell-based; conditions: 3 μM, HEK293 cells stably expressing human Kv72+3 channels
T1 construct: expressed in transfected cells

Row | Structure (SMILES) | melting point [°C] | activation compared to control [1] [%]
1 | CCc1nc2cc(F)ccc2c(=O)n1NC(=O)C(C)c1ccccc1 (centres unmarked) [Compound A1, N-(2-Ethyl-7-fluoro-4-oxo-4H-quinazolin-3-yl)-2-phenyl-propionamide] | 57 to 63 | 
2 | CC(C)c1nc2ccccc2c(=O)n1NC(=O)C(c1ccccc1)C(C)C (centres unmarked) [Compound B2, N-(2-Isopropyl-4-oxo-4H-quinazolin-3-yl)-3-methyl-2-phenyl-butyramide] | 188 to 193 | 
3 | COc1ccc(C(C)C(=O)Nn2c(C(C)C)nc3cc(C(F)(F)F)ccc3c2=O)cc1 (centres unmarked) [Compound B20, N-(2-Isopropyl-4-oxo-7-trifluoromethyl-4H-quinazolin-3-yl)-2-(4-methoxy-phenyl)-propionamide] |  | 87

Other lines, results leading:

Row | melting point [°C] | activation compared to control [1] [%] | Structure (SMILES)
4 | 48 to 55 |  | CC(C)c1nc2ccccc2c(=O)n1NC(=O)C(C)c1ccccc1 (centres unmarked) [Compound B1, N-(2-Isopropyl-4-oxo-4H-quinazolin-3-yl)-2-phenyl-propionamide]
5 |  | 60 | CC(C)c1nc2ccccc2c(=O)n1NC(=O)C(C)c1cccc(F)c1 (centres unmarked) [Compound B16, 2-(3-Fluoro-phenyl)-N-(2-isopropyl-4-oxo-4H-quinazolin-3-yl)-propionamide]
